# Source: US20170226145A1, “METHODS OF EXTRACTION AND PURIFICATION FROM STEVIA REBAUDIANA OF COMPOSITIONS WITH ENHANCED REBAUDIOSIDE-M CONTENT, USES OF SAID COMPOSITION AND NATURAL SWEETENER COMPOSITIONS WITH SAID COMPOSITION” (GLG LIFE TECH CORPORATION, priority 2014, published 2017)
# What was measured:
# Heat and pH stability = assay type: physicochemical; settings: RM obtained in accordance with the invention
# [1] = Sweetness relative to sucrose (general statements, Table 1)
# Description: The physical and sensory properties are well studied generally only for Stevioside (STV) and Rebaudioside A. The sweetness potency of Stevioside is around 210 times higher than sucrose, Rebaudioside A is between 200 and 400 times, and Rebaudioside C is between 40 and 50 times and Dulcoside A around 30 times. Traditionally, Rebaudioside A is considered to have the most favorable sensory attributes of the four major steviol glycosides (see Table 1): […]
# [2] = Solubility in water and solvents; assay type: physicochemical
# [3] = glycosides of wild type stevia; cited from earlier work
# [4] = Example 8 sample test results of sweetener solutions (Table 2)
# Description: Reb M 95, Reb C 85, Reb D 95, Reb A 97, Sucrose, New Blends RA97 and RM95, New Blends RA97, RM95 and RC85, New Blends RM95, RA97 and Sucrose, New Blends RM95, RA97 and Erythritol, Purified Water. [table]
compound,measurement,setting,value
"C=C1C[C@@]23CC[C@H]4[C@@](C)(CCC[C@@]4(C)C(=O)O[C@@H]4O[C@H](CO)[C@@H](O)[C@H](O[C@@H]5O[C@H](CO)[C@@H](O)[C@H](O)[C@H]5O)[C@H]4O[C@@H]4O[C@H](CO)[C@@H](O)[C@H](O)[C@H]4O)[C@@H]2CC[C@]1(O[C@@H]1O[C@H](CO)[C@@H](O)[C@H](O[C@@H]2O[C@H](CO)[C@@H](O)[C@H](O)[C@H]2O)[C@H]1O[C@@H]1O[C@H](CO)[C@@H](O)[C@H](O)[C@H]1O)C3 [RM, Rebaudioside M]",heat and pH stability,Heat and pH stability,heat and pH-stable
same,times sweeter than sugar,[1]; compared to a 10% sucrose solution,about 200 times
same,times sweetness of sucrose,[1]; purified Reb M of the invention,more than 300 times
same,"solubility in acetone, benzene, chloroform, and ether",[2],insoluble
same,"solubility in diluted solutions of methanol, ethanol, n-propanol, and isopropanol",[2],soluble
same,solubility of RM in water,[2]; increases with an increase in temperature,around 0.3%
C=C1C[C@@]23CC[C@H]4[C@@](C)(CCC[C@@]4(C)C(=O)O[C@@H]4O[C@H](CO)[C@@H](O)[C@H](O)[C@H]4O)[C@@H]2CC[C@]1(O[C@@H]1O[C@H](CO)[C@@H](O)[C@H](O[C@@H]2O[C@H](CO)[C@@H](O)[C@H](O)[C@H]2O)[C@H]1O[C@@H]1O[C@H](CO)[C@@H](O)[C@H](O)[C@H]1O)C3 [Rebaudioside A],"sweetness, × of sugar",[3],350-450 × of sugar
C=C1C[C@@]23CC[C@H]4[C@@](C)(CCC[C@@]4(C)C(=O)O[C@@H]4O[C@H](CO)[C@@H](O)[C@H](O)[C@H]4O)[C@@H]2CC[C@]1(O[C@@H]1O[C@H](CO)[C@@H](O)[C@H](O)[C@H]1O[C@@H]1O[C@H](CO)[C@@H](O)[C@H](O)[C@H]1O)C3 [Stevioside],"sweetness, × of sugar",[3],250-300 × of sugar
OC[C@H]1O[C@@](CO)(O[C@H]2O[C@H](CO)[C@@H](O)[C@H](O)[C@H]2O)[C@@H](O)[C@@H]1O [Sucrose],Content/100 ml,[4]; amount per 100 ml in the solution that has sweetness 9° (9 g sucrose),9 g
same,Sweetness of Solution,[4]; solution at the Content/100 ml of Table 2,9°
Rebaudioside C,"sweetness, × of sugar",[3],40-50 × of sugar
